Laboratory results as given in patent US4216206A (priority 1977, dated 1980).

System: mouse
Test: acute toxicity in the mouse over 7 days
Format: in vivo
Conditions: i.v.
Experimental: The acute toxicities of the antibiotics were determined in the mouse over 7 days.

Substance: Thiostrepton
- LD50: < 100 mg/kg
